# From patent US20130096100A1, “DI(ARYLAMINO)ARYL COMPOUND” (ASTELLAS PHARMA INC., priority 2007, published 2013)
# Assays:
# [1] = Toxicity test in rats, 7-day repeated oral administration (Test Example 5); type: in vivo, SD rats; details: 7 days; for Non-toxic dose: oral; for Dose: Bone marrow inhibition / Dose: Exacerbation of common symptoms / Dose: Moribund condition: SD, rat, in vivo, po
# Text: Test compounds were each suspended in a 0.5% aqueous methylcellulose solution and repeatedly administered to SD rats (two females and four males in each group) by the oral route at each dose for 7 days.
# MUSK [2] = biological target: T1, MUSK (Homo sapiens, UniProt O15146); assay: Kinase inhibition profiling, MUSK (Test Example 6); type: biochemical; parameters: purchased Carna Biosciences Inc., Japan (contract measurement); details: 100 nM; read-out: inhibitory activity against MUSK
# T1 sequence (O15146 24-869): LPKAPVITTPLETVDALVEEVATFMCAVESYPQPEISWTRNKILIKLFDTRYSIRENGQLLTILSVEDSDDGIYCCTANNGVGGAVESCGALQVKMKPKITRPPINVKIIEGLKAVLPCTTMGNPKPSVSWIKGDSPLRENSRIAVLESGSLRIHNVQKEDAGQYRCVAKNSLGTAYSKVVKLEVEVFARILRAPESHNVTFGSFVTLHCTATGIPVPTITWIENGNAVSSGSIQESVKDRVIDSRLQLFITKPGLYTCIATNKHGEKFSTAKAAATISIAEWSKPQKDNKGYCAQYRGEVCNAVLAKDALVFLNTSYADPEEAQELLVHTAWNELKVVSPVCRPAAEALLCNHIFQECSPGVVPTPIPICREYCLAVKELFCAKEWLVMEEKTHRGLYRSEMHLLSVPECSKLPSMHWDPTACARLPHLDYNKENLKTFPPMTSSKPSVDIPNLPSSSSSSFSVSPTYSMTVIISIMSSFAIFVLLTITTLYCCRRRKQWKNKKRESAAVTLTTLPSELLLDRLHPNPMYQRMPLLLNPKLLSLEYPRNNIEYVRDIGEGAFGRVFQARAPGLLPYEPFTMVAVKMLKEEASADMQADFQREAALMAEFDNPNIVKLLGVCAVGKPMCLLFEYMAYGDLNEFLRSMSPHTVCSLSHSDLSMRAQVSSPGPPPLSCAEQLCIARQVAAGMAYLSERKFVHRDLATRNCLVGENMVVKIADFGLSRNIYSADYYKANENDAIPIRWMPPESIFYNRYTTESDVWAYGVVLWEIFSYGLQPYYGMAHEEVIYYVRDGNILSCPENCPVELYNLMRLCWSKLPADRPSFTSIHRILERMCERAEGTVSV
# [3] = tested on: human non-small cell lung cancer cell line HCC827 cells (mutant EGFR protein-expressing cells); assay: Inhibitory effect against anchorage-independent cell growth of HCC827 cells (Test Example 4); type: cell-based; details: 120 h, spheroid plate, 5 days, CellTiter-Glo
# Description: In a 96-well spheroid plate (Sumilon Celltight Spheroid 96U; Sumitomo Bakelite Co., Ltd., Japan), human non-small cell lung cancer cell line NCI-H2228 cells were seeded at 2000 cells per well in RPMI1640 medium (Invitrogen) containing 10% fetal bovine serum. NCI-H2228 cells are those expressing another EML4-ALK fusion protein, which is different from the EML4-ALK fusion protein v1 because it is encoded by an EML4-ALK fusion polynucleotide whose fusion point on EML4 cDNA is different from that of the EML4-ALK fusion polynucleotide v1, but whose ALK region is the same as that of the EML4-ALK fusion polynucleotide v1. The above NCI-H2228 cells seeded in the plate were cultured overnight under 5% CO2 at 37° C., followed by addition of a test compound (final concentration: 10 μM to 1 nM). As a negative control, DMSO used as a solvent was added at the same concentration as the test compound. Then, the cells were cultured under 5% CO2 at 37° C. for 5 days. A cell counting reagent (CellTiter-Glo™ Luminescent Cell Viability Assay; Promega) was added and agitated for 20 minutes, followed by measurement with a luminometer (ML3000 microtiter plate luminometer; Dynatech Laboratories).
# Evaluation of Inhibitory Effect Against Anchorage-Independent Cell Growth of Human Non-Small Cell Lung Cancer Cell Line HCC827 Cells (Mutant EGFR (with Partial Deletion of Exon 19 in EGFR) Protein-Expressing Cells, American Type Culture Collection)
# Evaluation was performed in the same manner as shown in Test Example 3.
# MUSK [4] = biological target: T1, MUSK; assay: Inhibitory activity against the kinase activity of MUSK protein (Test Example 7); type: biochemical; parameters: purchased Carna Biosciences Inc., Japan; details: ATP 10 μM, reaction 1 hour, HTRF KinEASE-TK
# Description: MUSK protein (Carna Biosciences Inc., Japan) was investigated for its phosphorylation activity toward a peptide substrate by using a kinase activity detection kit (HTRF KinEASE-TK; Cisbio Inc.). […] The ATP concentration used was 10 μM. Another reaction solution was prepared to contain the enzyme protein but no test compound (in which the solvent DMSO alone was added at 0.4% in place of the test compound), followed by reaction in the same manner with or without ATP addition. […] The concentration causing 50% inhibition (IC50) was calculated for each test compound by the logistic regression method.
# MNK1 = biological target: T2, MNK1 (Homo sapiens, UniProt Q9BUB5); assay: Kinase inhibition profiling, MNK1 (Test Example 6); type: biochemical; details: 100 nM; read-out: inhibitory activity against MNK1
# T2 construct: purchased Carna Biosciences Inc., Japan (contract measurement)
# T2 sequence (Q9BUB5 whole entry): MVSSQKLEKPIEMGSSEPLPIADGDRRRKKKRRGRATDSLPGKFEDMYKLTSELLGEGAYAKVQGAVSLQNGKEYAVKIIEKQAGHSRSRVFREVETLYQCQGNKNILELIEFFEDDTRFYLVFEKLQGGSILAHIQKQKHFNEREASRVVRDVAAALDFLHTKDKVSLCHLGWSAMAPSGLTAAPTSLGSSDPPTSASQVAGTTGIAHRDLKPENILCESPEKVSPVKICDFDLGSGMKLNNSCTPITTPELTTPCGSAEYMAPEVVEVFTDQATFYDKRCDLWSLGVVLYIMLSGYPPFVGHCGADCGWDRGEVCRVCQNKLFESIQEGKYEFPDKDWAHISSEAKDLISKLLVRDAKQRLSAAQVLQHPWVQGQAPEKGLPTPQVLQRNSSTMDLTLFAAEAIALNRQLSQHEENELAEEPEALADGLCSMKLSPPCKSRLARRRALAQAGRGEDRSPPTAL
Compound,Non-toxic dose ([1]; female SD rats (2 rats)) [mg/kg],Dose: Bone marrow inhibition ([1]; female) [mg/kg],Dose: Exacerbation of common symptoms ([1]; female),Dose: Moribund condition ([1]; female),Non-toxic dose ([1]; male SD rats (4 rats)) [mg/kg],Dose: Bone marrow inhibition ([1]; male) [mg/kg],Dose: Exacerbation of common symptoms ([1]; male),Dose: Moribund condition ([1]; male),inhibition at 0.1 µM (MUSK [2]) [%],IC50 [3] [nM],IC50 (MUSK [4]) [nM],inhibition at 0.1 µM (MNK1) [%]
COc1cc(N2CCC(N3CCN(C)CC3)CC2)ccc1Nc1ncnc(Nc2ccccc2S(=O)(=O)C(C)C)n1 [Example 23],10,100,(>300) mg/kg,(>300) mg/kg,10,100,(>300) mg/kg,(>300) mg/kg,< 20,272,1500,60
CCNS(=O)(=O)c1ccccc1Nc1ncnc(Nc2ccc(N3CCC(N4CCN(C)CC4)CC3)cc2OC)n1 [Example 123],–,–,–,–,–,–,–,–,–,238,1100,–
